Oligonucleotides are written 5' to 3', each unit as a sugar letter and its base; * is a phosphorothioate linkage, no mark a phosphodiester; rarer units and linkages stand in square brackets, end groups in braces. Plain capitals give the bases only. e = 2'-O-(2-methoxyethyl) (MOE); k = constrained ethyl (cEt); [5mC] = 5-methylcytosine; d = 2'-deoxy (DNA)
Experiments:
AR mRNA [1] = test: Antisense inhibition of human AR in HuVEC cells, single concentration (electroporation, qRT-PCR RTS3559); assay type: cell-based; conditions: ~24 h
How it was run: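 HuVEC cells electroporated with antisense oligonucleotides at a single concentration. AR mRNA quantified by qRT-PCR using human primer-probe set RTS3559 and normalised to total RNA content by RIBOGREEN.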

AR mRNA [2] = test: Dose-dependent antisense inhibition of human AR in HuVEC cells (electroporation, qRT-PCR RTS3559, IC50); assay type: cell-based; conditions: HuVEC, ~16 h
How it was run: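 HuVEC cells dosed with antisense oligonucleotides by electroporation and treated approximately 16 hours. AR mRNA quantified by real-time qPCR with primer probe set RTS3559 and normalised to total RNA by RIBOGREEN; IC50 from dose-response.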

AR mRNA [3] = test: AR mRNA in LnCaP cells by free uptake (hAR_LTS00943); assay type: cell-based, human; conditions: 24 hrs
Protocol: Cells were plated at a concentration of 4,000 cells/well in 96-well plates. ISIS oligonucleotides, specified in Table 68, were added individually at 0.02 μM, 0.10 μM, 0.50 μM, 2.50 μM, or 10.00 μM. After an incubation period of 24 hrs, mRNA levels were measured using primer probe set hAR_LTS00943.

TMPRSS2 mRNA = TMPRSS2 mRNA levels in LMR20 cells; assay type: cell-based, human; conditions: LMR20 cells; for TMPRSS2 mRNA levels (% baseline value) after treatment with DHT: DHT 10 nM 72 hrs; for TMPRSS2 mRNA levels (% baseline value) after treatment with R1881: R1881 10 nM 72 hrs; for TMPRSS2 mRNA levels (% baseline value) of cells without AR agonist treatment: no AR agonist
Protocol: (§1) LMR20 cells were plated at 1,500 cells per well in phenol red-free medium with CSS.

AR mRNA [4] = test: AR mRNA levels in LMR20 cells (with/without DHT or R1881); assay type: cell-based, human; conditions: LMR20 cells; for AR mRNA levels (% baseline value) after treatment with DHT: DHT 10 nM 72 hrs; for AR mRNA levels (% baseline value) after treatment with R1881: R1881 10 nM 72 hrs; for AR mRNA levels (% baseline value) of cells without AR agonist treatment: no AR agonist
Protocol: as §1

[5] = system: prostate-specific antigen (PSA) mRNA; test: PSA mRNA levels in LMR20 cells; assay type: cell-based, human; conditions: LMR20 cells; for PSA mRNA levels (% baseline value) after treatment with DHT: DHT 10 nM 72 hrs; for PSA mRNA levels (% baseline value) after treatment with R1881: R1881 10 nM 72 hrs; for PSA mRNA levels (% baseline value) of cells without AR agonist treatment: no AR agonist
Protocol: LMR20 cells were plated at 1,500 cells per well in phenol red-free medium with CSS. […] Results are presented in Tables 43-45 as mRNA levels expressed as a percentage of the baseline values. mRNA levels may be lowered or increased after treatment.

569227 (antisense eT*eG*kA*kT*kT*dT*dA*dA*dT*dG*dG*dT*kT*kG*k[5mC]*eA) [compound 569227]
% inhibition (AR mRNA [1]; 1,000 nM ASO, Table 13): 51%
percent inhibition of AR (AR mRNA [2]; 31.25 nM, Table 14): 13%
percent inhibition of AR (AR mRNA [2]; 62.5 nM, Table 10): 8%
percent inhibition of AR (AR mRNA [2]; 62.5 nM, Table 14): 22%
percent inhibition of AR (AR mRNA [2]; 125.0 nM, Table 10): 40%
percent inhibition of AR (AR mRNA [2]; 125.0 nM, Table 14): 45%
percent inhibition of AR (AR mRNA [2]; 500.0 nM, Table 10): 51%
percent inhibition of AR (AR mRNA [2]; 500.0 nM, Table 14): 61%
percent inhibition of AR (AR mRNA [2]; 1000.0 nM, Table 10): 73%
percent inhibition of AR (AR mRNA [2]; 1000.0 nM, Table 14): 74%
IC50 (AR mRNA [2]; Table 10): 388 nM
IC50 (AR mRNA [2]; Table 14): 255 nM
Percent inhibition of AR mRNA (AR mRNA [3]; 0.02 μM): 0%
Percent inhibition of AR mRNA (AR mRNA [3]; 0.1 μM): 0%
Percent inhibition of AR mRNA (AR mRNA [3]; 0.5 μM): 4%
Percent inhibition of AR mRNA (AR mRNA [3]; 10 μM): 55%

569236 (antisense eT*kG*kA*kT*dT*dT*dA*dA*dT*dG*dG*kT*kT*kG*e[5mC]*eA) [compound 569236]
TMPRSS2 mRNA levels (% baseline value) after treatment with DHT (TMPRSS2 mRNA; ASO 0.04 μM): 113 % baseline value
TMPRSS2 mRNA levels (% baseline value) after treatment with DHT (TMPRSS2 mRNA; ASO 0.20 μM): 123 % baseline value
TMPRSS2 mRNA levels (% baseline value) after treatment with DHT (TMPRSS2 mRNA; ASO 1.0 μM): 111 % baseline value
TMPRSS2 mRNA levels (% baseline value) after treatment with DHT (TMPRSS2 mRNA; ASO 5.0 μM): 110 % baseline value
TMPRSS2 mRNA levels (% baseline value) after treatment with R1881 (TMPRSS2 mRNA; ASO 0.04 μM): 126 % baseline value
TMPRSS2 mRNA levels (% baseline value) after treatment with R1881 (TMPRSS2 mRNA; ASO 0.20 μM): 131 % baseline value
TMPRSS2 mRNA levels (% baseline value) after treatment with R1881 (TMPRSS2 mRNA; ASO 1.0 μM): 98 % baseline value
TMPRSS2 mRNA levels (% baseline value) after treatment with R1881 (TMPRSS2 mRNA; ASO 5.0 μM): 95 % baseline value
TMPRSS2 mRNA levels (% baseline value) of cells without AR agonist treatment (TMPRSS2 mRNA; ASO 0.04 μM): 96 % baseline value
TMPRSS2 mRNA levels (% baseline value) of cells without AR agonist treatment (TMPRSS2 mRNA; ASO 0.20 μM): 81 % baseline value
TMPRSS2 mRNA levels (% baseline value) of cells without AR agonist treatment (TMPRSS2 mRNA; ASO 1.0 μM): 59 % baseline value
TMPRSS2 mRNA levels (% baseline value) of cells without AR agonist treatment (TMPRSS2 mRNA; ASO 5.0 μM): 48 % baseline value
AR mRNA levels (% baseline value) after treatment with DHT (AR mRNA [4]; ASO 0.04 μM): 94 % baseline value
AR mRNA levels (% baseline value) after treatment with DHT (AR mRNA [4]; ASO 0.20 μM): 77 % baseline value
AR mRNA levels (% baseline value) after treatment with DHT (AR mRNA [4]; ASO 1.0 μM): 44 % baseline value
AR mRNA levels (% baseline value) after treatment with DHT (AR mRNA [4]; ASO 5.0 μM): 34 % baseline value
AR mRNA levels (% baseline value) after treatment with R1881 (AR mRNA [4]; ASO 0.04 μM): 89 % baseline value
AR mRNA levels (% baseline value) after treatment with R1881 (AR mRNA [4]; ASO 0.20 μM): 80 % baseline value
AR mRNA levels (% baseline value) after treatment with R1881 (AR mRNA [4]; ASO 1.0 μM): 44 % baseline value
AR mRNA levels (% baseline value) after treatment with R1881 (AR mRNA [4]; ASO 5.0 μM): 37 % baseline value
AR mRNA levels (% baseline value) of cells without AR agonist treatment (AR mRNA [4]; ASO 0.04 μM): 104 % baseline value
AR mRNA levels (% baseline value) of cells without AR agonist treatment (AR mRNA [4]; ASO 0.20 μM): 87 % baseline value
AR mRNA levels (% baseline value) of cells without AR agonist treatment (AR mRNA [4]; ASO 1.0 μM): 42 % baseline value
AR mRNA levels (% baseline value) of cells without AR agonist treatment (AR mRNA [4]; ASO 5.0 μM): 27 % baseline value
PSA mRNA levels (% baseline value) after treatment with DHT ([5]; ASO 0.04 μM): 108 % baseline value
PSA mRNA levels (% baseline value) after treatment with DHT ([5]; ASO 0.20 μM): 79 % baseline value
PSA mRNA levels (% baseline value) after treatment with DHT ([5]; ASO 1.0 μM): 46 % baseline value
PSA mRNA levels (% baseline value) after treatment with DHT ([5]; ASO 5.0 μM): 46 % baseline value
PSA mRNA levels (% baseline value) after treatment with R1881 ([5]; ASO 0.04 μM): 90 % baseline value
PSA mRNA levels (% baseline value) after treatment with R1881 ([5]; ASO 0.20 μM): 90 % baseline value
PSA mRNA levels (% baseline value) after treatment with R1881 ([5]; ASO 1.0 μM): 57 % baseline value
PSA mRNA levels (% baseline value) after treatment with R1881 ([5]; ASO 5.0 μM): 41 % baseline value
PSA mRNA levels (% baseline value) of cells without AR agonist treatment ([5]; ASO 0.04 μM): 122 % baseline value
PSA mRNA levels (% baseline value) of cells without AR agonist treatment ([5]; ASO 0.20 μM): 90 % baseline value
PSA mRNA levels (% baseline value) of cells without AR agonist treatment ([5]; ASO 1.0 μM): 78 % baseline value
PSA mRNA levels (% baseline value) of cells without AR agonist treatment ([5]; ASO 5.0 μM): 73 % baseline value
% inhibition (AR mRNA [1]; 250 nM ASO, Table 7): 66%
percent inhibition of AR (AR mRNA [2]; 31.25 nM, Table 8): 17%
percent inhibition of AR (AR mRNA [2]; 62.5 nM, Table 8): 39%
percent inhibition of AR (AR mRNA [2]; 62.5 nM, Table 10): 4%
percent inhibition of AR (AR mRNA [2]; 125.0 nM, Table 8): 54%
percent inhibition of AR (AR mRNA [2]; 125.0 nM, Table 10): 35%
percent inhibition of AR (AR mRNA [2]; 500.0 nM, Table 8): 84%
percent inhibition of AR (AR mRNA [2]; 500.0 nM, Table 10): 68%
percent inhibition of AR (AR mRNA [2]; 1000.0 nM, Table 8): 92%
percent inhibition of AR (AR mRNA [2]; 1000.0 nM, Table 10): 88%
IC50 (AR mRNA [2]; Table 8): 110 nM
IC50 (AR mRNA [2]; Table 10): 252 nM
Percent inhibition of AR mRNA (AR mRNA [3]; 0.02 μM): 3%
Percent inhibition of AR mRNA (AR mRNA [3]; 0.1 μM): 2%
Percent inhibition of AR mRNA (AR mRNA [3]; 0.5 μM): 21%
Percent inhibition of AR mRNA (AR mRNA [3]; 10 μM): 70%
